From patent publication US20230321055A1, “PREVENTIVE TREATMENT OF MIGRAINE” (priority 2022, published 2023)

System: participants with chronic migraine
Assay: Phase 3 randomized, double-blind, placebo-controlled study of atogepant for prevention of chronic migraine: eDiary efficacy (migraine, headache and acute medication use days, responder rates)
Format: in vivo, human
Method: A phase 3, multicenter, randomized, double-blind, placebo-controlled, parallel-group study was carried out to evaluate the efficacy, safety, and tolerability of atogepant for the prevention of chronic migraine. A total of 778 participants from 133 sites in North America, Europe, and East Asia were randomized to one of three treatment arms (placebo, Atogepant 30 mg BID, and Atogepant 60 mg QD) in a 1:1:1 ratio.
This study comprised a 4-week screening and baseline period, a 12-week double blind treatment period, and a follow-up period of 4 additional weeks. The total study duration was 20 weeks. Participant disposition information and other relevant participant screening information may also be found in FIG. 19.
The primary end point was the change from baseline in the mean number of migraine days per month across the 12 week treatment period.
Secondary endpoints included change from baseline in mean monthly headache days across the 12 week treatment period; change from baseline in mean monthly acute medication use days across the 12-week treatment period; at least a 50% reduction in mean monthly migraine days across the 12-week treatment period; change from baseline in MSQ v2.1 Role Function-Restrictive domain score at week 12; change from baseline in mean AIM-D monthly functioning and activity impairment score across the 12-week treatment period; and change from baseline in HIT-6 total score at week 12.
Inclusion criteria included at least a 1-year history of chronic migraine consistent with diagnosis according to the International Classification of Headache Disorders, 3rd Edition (ICHD-3) and age of the participant at the time of migraine onset <50 years. Inclusion criteria further included confirmation of headache / migraine headache day frequency as follows: history of, on average, ≥15 headache days per month in the 3 months prior to Visit 1 in the opinion of the investigator AND >=15 headache days during the 4-week screening/baseline period per the electronic diary (eDiary) AND >=8 days during the 4-week screening/baseline period that qualify as being a migraine day per the eDiary. Participants were also required to be using a medically acceptable and effective method of birth control during the course of the entire study.
Exclusion criteria included a history of migraine, accompanied by diplopia or decreased level of consciousness, or retinal migraine; a current diagnosis of new persistent daily headache, trigeminal autonomic cephalgia (e.g., cluster headache), or painful cranial neuropathy; history of an inadequate response to >4 medications (2 of which have different mechanisms of action) prescribed for the prevention of migraine; and woman who is pregnant, planning to become pregnant during the course of the study, or currently lactating.
• All Screened Participants includes those screened participants who signed informed consent form. • The Intent-to-Treat Population includes all randomized participants. […] Treatment groups assigned as randomized.
A Subset of patients (11%) was allowed to use one concomitant migraine preventive medication (e.g., amitriptyline, propranolol, topiramate). Patients were allowed to use acute headache treatments (i.e., triptans, ergotamine derivatives, NSAIDs, acetaminophen, and opioids) as needed. Patients with acute medication overuse and medication overuse headache were also enrolled. The use of a concomitant medication that acts on the CGRP pathway was not permitted for either acute or preventive treatment of migraine. The study excluded patients with myocardial infarction, stroke, or transient ischemic attacks within six months prior to screening.
Outcomes for this analysis included change from baseline in mean MMDs during 4-week intervals, change in weekly migraine days during weeks 1-4, and the proportion of participants with a migraine on each day during the first 7 days of treatment. […] Baseline MMDs ranged from 18.6 to 19.2 across treatment groups. […]

[1] = 60 mg QD, Off-Treatment Hypothetical Estimand population
[2] = 60 mg QD, acute medication over-users
[3] = 60 mg QD, mITT, listed as atogepant
[4] = range over 30 mg twice daily and 60 mg once daily

Structure (SMILES): C[C@@H]1[C@H](c2c(F)ccc(F)c2F)C[C@H](NC(=O)c2cnc3c(c2)C[C@@]2(C3)C(=O)Nc3ncccc32)C(=O)N1CC(F)(F)F [Atogepant, (S)—N—((3S,5S,6R)-6-methyl-2-oxo-1-(2,2,2-trifluoroethyl)-5-(2,3,6-trifluorophenyl)piperidin-3-yl)-2′-oxo-1′,2′,5,7-tetrahydrospiro[cyclopenta[b]pyridine-6,3′-pyrrolo[2,3-b]pyridine]-3-carboxamide]
- participants with ≥50% reduction in 3-month average of MMDs (60 mg QD, Europe subpopulation): 46.7%
- ≥50% reduction in 3-month average of MMDs, OR vs placebo (60 mg QD, Europe subpopulation): 1.84
- LS mean change in MMDs (60 mg QD, Europe subpopulation of OTHE population (n=90)): −8.00
- decrease of monthly migraine days across the 12 weeks (60 mg QD, OTHE population): 6.75 days
- >=50% reduction in 3-month average of monthly migraine days, Odds ratio Atogepant vs. Placebo [1]: 1.90
- Change from baseline in mean monthly acute medication use days across the 12-week treatment period, LS Mean [1]: -6.19 days
- Change from baseline in mean monthly acute medication use days across the 12-week treatment period, LSMD Atogepant vs. Placebo [1]: -2.09 days
- Change from baseline in mean monthly headache days across the 12-week treatment period, LS Mean [1]: -6.90 days
- Change from baseline in mean monthly headache days across the 12-week treatment period, LSMD Atogepant vs. Placebo [1]: -1.72 days
- Change from baseline in mean monthly migraine days across the 12-week treatment period, LS Mean [1]: -6.75 days
- Change from baseline in mean monthly migraine days across the 12-week treatment period, LSMD Atogepant vs. Placebo [1]: -1.66 days
- >=50% reduction in 3-month average of monthly migraine days, Responders (60 mg QD, Off-Treatment Hypothetical Estimand population (N = 257)): 103 (40.1) n (%)
- LSM change from baseline in mean monthly acute medication use days [2]: −8.1
- mean monthly acute medication use days, LSM difference vs placebo [2]: −2.6
- participants with ≥50% reduction in mean MMDs across the 12-week treatment period (60 mg QD, acute medication overuse participants): 41.8%
- >=50% reduction in 3-month average of monthly migraine days, Odds ratio Atogepant vs. Placebo (60 mg QD, mITT): 2.04
- Change from baseline in mean monthly acute medication use days across the 12-week treatment period, LS Mean (60 mg QD, mITT): -6.23 days
- Change from baseline in mean monthly acute medication use days across the 12-week treatment period, LSMD Atogepant vs. Placebo (60 mg QD, mITT): -2.13 days
- Change from baseline in mean monthly headache days across the 12-week treatment period, LS Mean (60 mg QD, mITT): -7.00 days
- Change from baseline in mean monthly headache days across the 12-week treatment period, LSMD Atogepant vs. Placebo (60 mg QD, mITT): -1.87 days
- Change from baseline in mean monthly migraine days across the 12-week treatment period, LS Mean (60 mg QD, mITT): -6.88 days
- Change from baseline in mean monthly migraine days across the 12-week treatment period, LSMD Atogepant vs. Placebo (60 mg QD, mITT): -1.82 days
- decrease of monthly migraine days across the 12 weeks (60 mg QD, mITT): 6.88 days
- participants with ≥30% reduction in mean MMDs across 12 weeks (60 mg QD, mITT): 59.0%
- participants with ≥50% reduction in mean MMDs across 12 weeks (60 mg QD, mITT): 41.0%
- participants with ≥75% reduction in mean MMDs across 12 weeks (60 mg QD, mITT): 18.8%
- Change from baseline in mean monthly migraine days across the 12-week treatment period, LS Mean [3]: -6.9 days
- Change from baseline in mean monthly migraine days across the 12-week treatment period, LSMD Atogepant vs. Placebo [3]: -1.8 days
- LSM change from baseline in mean MMDs across 12 weeks (60 mg QD, participants with acute medication overuse at baseline): −7.5
- mean change from baseline in MMDs (60 mg QD, weeks 1-4 of treatment): -6.2 days
- participants with <30% reduction in mean MMDs in month 1 who experienced ≥30% reduction in either month 2 or 3 (60 mg once daily): 45/108
- participants with <30% reduction in mean MMDs in month 1 who experienced ≥30% reduction in month 2 (60 mg once daily): 31/113
- participants with <50% reduction in mean MMDs in month 1 who experienced ≥50% reduction in either month 2 or 3 (60 mg once daily): 38/139
- participants with <50% reduction in mean MMDs in month 1 who experienced ≥50% reduction in month 2 (60 mg once daily): 28/146
- participants without ≥30% reduction in mean MMDs in months 1 or 2 who experienced a ≥30% response by the end of the trial (60 mg once daily): 17.1%
- participants without ≥50% reduction in mean MMDs in months 1 or 2 who experienced a ≥50% response by the end of the trial (60 mg once daily): 8.2%
- sustained response among participants with ≥75% response in month 1 (60 mg once daily, mITT): 52.5%
- sustained response of ≥30% in months 2 and 3 among participants with ≥30% response in month 1 (60 mg once daily, mITT): 81.6%
- sustained response of ≥50% in months 2 and 3 among participants with ≥50% response in month 1 (60 mg once daily, mITT): 74.2%
- likelihood of having a migraine vs placebo (first full day after treatment initiation, atogepant-treated participants, P≤0.03): significantly less likely
- participants with <30% reduction in mean MMDs in month 1 who experienced ≥30% reduction in either month 2 or 3 [4]: 41.7%-52.1%
- participants with <30% reduction in mean MMDs in month 1 who experienced ≥30% reduction in month 2 [4]: 27.4%-36.4%
- participants with <50% reduction in mean MMDs in month 1 who experienced ≥50% reduction in either month 2 or 3 [4]: 27.3%-39.4%
- participants with <50% reduction in mean MMDs in month 1 who experienced ≥50% reduction in month 2 [4]: 19.2%-23.5%
